Experimental data published in patent US9833431B2, “Pharmaceutical combinations for the treatment of cancer” (Pitney Pharmaceuticals Pty Limited, priority 2013, dated 2017).
Values joined by “and” are separate entries in the source; they are usually repeats but may differ in a detail not shown here. Equal values may be shown once. “Also recorded” adds a separate entry of the source.

Tests used:
[1] = test system: MCF-7; test: SRB cytotoxicity assay, MCF-7 cells; format: cell-based; conditions: Homo sapiens, MCF7, 72 h, MCF-7, malignant, breast
Procedure: (§1) All cell lines described herein were purchased from ATCC. […] Control cultures were treated with ethanol alone.

[2] = test system: MDA-MB-231; test: SRB cytotoxicity assay, MDA-MB-231 cells; format: cell-based; conditions: MDA-MB-231, malignant, breast
Procedure: as §1

[3] = test system: T47-D; test: SRB cytotoxicity assay, T47-D cells; format: cell-based; conditions: Homo sapiens, T47D, malignant, breast, 72 h
Procedure: as §1

[4] = test system: HT-29 5m11; test: SRB cytotoxicity assay, HT-29 5m11 cells; format: cell-based; conditions: Homo sapiens, read-out: LC50 (the source's name)
Procedure: as §1

[5] = test system: LN-18; test: SRB cytotoxicity assay, LN-18 cells; format: cell-based, human; conditions: 72 h
Procedure: as §1

[6] = test system: U87; test: SRB cytotoxicity assay, U87 cells; format: cell-based, human; conditions: 72 h
Procedure: as §1

[7] = test system: U251; test: SRB cytotoxicity assay, U251 cells; format: cell-based; conditions: Homo sapiens, U-251, U251, malignant, glial, 72 h
Procedure: as §1

[8] = test system: Hep3B; test: SRB cytotoxicity assay, Hep3B cells; format: cell-based, human; conditions: for cytotoxic effect of MPL alone: Hep3B cells
Procedure: as §1

[9] = test system: HT-1080 (Fibrosarcoma); test: SRB cytotoxicity assay, HT-1080 cells; format: cell-based
Procedure: as §1

[10] = test system: SW-872 (Liposarcoma); test: SRB cytotoxicity assay, SW-872 cells; format: cell-based; conditions: Homo sapiens, SW872
Procedure: as §1

[11] = test system: PET; test: SRB cytotoxicity assay, PET cells; format: cell-based, human; conditions: 72 h
Procedure: as §1

[12] = test system: REN; test: SRB cytotoxicity assay, REN cells; format: cell-based, human; conditions: 72 h
Procedure: as §1

[13] = test system: YOU; test: SRB cytotoxicity assay, YOU cells; format: cell-based, human; conditions: 72 h
Procedure: as §1

[14] = test system: 1A9; test: SRB cytotoxicity assay, 1A9 cells; format: cell-based; conditions: Homo sapiens, 1A9, malignant, ovarian, 72 h
Procedure: as §1

[15] = test system: IGROV-1; test: SRB cytotoxicity assay, IGROV-1 cells; format: cell-based; conditions: Homo sapiens, IGROV-1, malignant, ovarian, 72 h
Procedure: as §1

[16] = test system: AsPC1; test: SRB cytotoxicity assay, AsPC1 cells; format: cell-based, human; conditions: 72 h
Procedure: as §1

[17] = test system: PC-3; test: SRB cytotoxicity assay, PC-3 cells; format: cell-based; conditions: Homo sapiens, PC-3, malignant, prostatic, 72 h
Procedure: as §1

[18] = test system: 3T3 (fibroblast); test: SRB cytotoxicity assay, 3T3 cells; format: cell-based; conditions: immortalised, mesenchymal, 72 h
Procedure: as §1

[19] = test system: HEK; test: SRB cytotoxicity assay, HEK cells; format: cell-based; conditions: Homo sapiens, HEK293, immortalised, nephritic, 72 h
Procedure: as §1

[20] = test system: CHO; test: SRB cytotoxicity assay, CHO cells; format: cell-based; conditions: Cricetulus griseus, immortalised, ovarian, 72 h
Procedure: as §1

[21] = test system: HUVEC; test: SRB cytotoxicity assay, HUVEC; format: cell-based; conditions: Homo sapiens, non-malignant, endothelial, 72 h
Procedure: as §1

[22] = test system: Human Fetal Astrocytes; test: SRB cytotoxicity assay, human fetal astrocytes; format: cell-based; conditions: Astrocyte, non-malignant, glial, 72 h
Procedure: as §1

[23] = test system: 28 malignant cell lines; test: SRB cytotoxicity assay, summary over malignant cell lines; format: cell-based; conditions: all 28 malignant cell lines tested, with the exception of CFPAC-1 and SKOV-3; summary of Table 3; read-out: IC50 proliferation
Procedure: as §1

[24] = test system: HUVEC, human fetal astrocytes and HOSE cells; test: SRB cytotoxicity assay, summary over early/primary passage cells; format: cell-based; conditions: summary of Table 3, read-out: IC50 proliferation
Procedure: as §1

[25] = in vivo; cited from earlier work
[26] = dosage of 1000 mg of MPL per kg of body weight per 24 hours; mammals; cited from earlier work
[27] = test system: CFPAC-1; test: SRB cytotoxicity assay, CFPAC-1 cells
Procedure: (§2) Cells were seeded in 96-well plates (2,000-3,000 cells/well) and culture overnight prior to treatment with MPL. Control cultures were treated with ethanol alone.
(§3) Cytotoxicity was assessed using the sulforhodamine B (SRB) assay and reported as half maximal inhibitory concentration (IC50; Table 3). Cells were seeded in 96-well plates (2,000-3,000 cells/well), treated with the indicated compound(s) for 72 h, fixed, washed and stained with 100 μl of 0.4% (w/v) SRB dissolved in 1% acetic acid. Unbound dye was removed by five washes with 1% acetic acid before air-drying.
(§4) MPL (5 μM) and combination drugs were applied for 72 h unless indicated.

[28] = test system: A2780; test: SRB cytotoxicity / proliferation assay, A2780 cells; conditions: for Mpl Alone, Mpl (x/X) Inhibition: A2780 Ovarian, 72 h, x=events, X=experiments
Procedure: as §2
(§5) Cells were seeded in 96-well plates (2,000-3,000 cells/well), treated with the indicated compound(s) for 72 h, fixed, washed and stained with 100 μl of 0.4% (w/v) SRB dissolved in 1% acetic acid. Unbound dye was removed by five washes with 1% acetic acid before air-drying.
Cell viability was conducted according to standard Trypan Blue method. Cell proliferation was assessed using the sulforhodamine B (SRB) assay. For viability experiments, cells were seeded in 6 well plates, whereas for proliferation assays cells were grown in 96 well plates. Following over-night attachment, cells were treated with the intended drug at various concentrations either alone or in combination with monepantel (MPL) for 72 h. Parallel to this, cells treated with MPL alone were also deployed for comparative purposes. Following incubation for 72 h in a standard cell culture incubator, effect of mono and combined drug treatments on cell viability and/or cell proliferation was assessed through using Trypan Blue or SRB assays respectively.
(§6) For viability assay, at the end of treatment period, cells were washed with PBS, trypsinized and counted using Trypan blue and hemocytometer. For the SRB assay cells were fixed, washed and stained with 100 μl of 0.4% (w/v) SRB dissolved in 1% acetic acid. Unbound dye was removed by five washes with 1% acetic acid before air drying. […] Monepantel (gift by Novartis, Basel, Switzerland) was dissolved in 100% ethanol and then diluted with the cell culture media.

[29] = test system: OVCAR-3; test: SRB cytotoxicity / proliferation assay, OVCAR-3 cells; conditions: for significant cytotoxic effect of MPL alone: OVCAR-3 cells
Procedure: as §2, §3
(§7) In order to evaluate the effect of MPL on the in vitro efficacy of an established drug was evaluated using cell viability and cell proliferation assays. Cell viability was conducted according to standard Trypan Blue method. Cell proliferation was assessed using the sulforhodamine B (SRB) assay. For viability experiments, cells were seeded in 6 well plates, whereas for proliferation assays cells were grown in 96 well plates. Following over-night attachment, cells were treated with the intended drug at various concentrations either alone or in combination with monepantel (MPL) for 72 h. Parallel to this, cells treated with MPL alone were also deployed for comparative purposes. Following incubation for 72 h in a standard cell culture incubator, effect of mono and combined drug treatments on cell viability and/or cell proliferation was assessed through using Trypan Blue or SRB assays respectively.
as §6, §4

[30] = test system: HOSE; test: SRB cytotoxicity assay, HOSE non-malignant control cells; conditions: for Mpl Alone, Mpl (x/X) Inhibition: 5 μM MPL, x=events, X=experiments; for cytotoxicity of MPL alone: HOSE control cells, Table 6 footnote 3
Procedure: All cell lines described herein were purchased from ATCC. Cells were seeded in 96-well plates (2,000-3,000 cells/well) and culture overnight prior to treatment with MPL. Control cultures were treated with ethanol alone.
as §5
Corresponding cytotoxicity of the major metabolite MPL-SO2 has also been tested where indicated. […] HUVEC, human fetal astrocytes and HOSE cells are non-transformed, non-immortalized and non-malignant, freshly isolated/low passage number cell populations, from apparently healthy non-diseased tissue. These healthy cell populations were included in the experimental series as controls for non-specific toxicity. Both MPL and MPL-SO2 were suspended in ethanol and applied in final concentrations of 0.5 to 1% ethanol in the respective culture media.
as §7
For viability assay, at the end of treatment period, cells were washed with PBS, trypsinized and counted using Trypan blue and hemocytometer. For the SRB assay cells were fixed, washed and stained with 100 μl of 0.4% (w/v) SRB dissolved in 1% acetic acid. Unbound dye was removed by five washes with 1% acetic acid before air drying. […] Monepantel (gift by Novartis, Basel, Switzerland) was dissolved in 100% ethanol and then diluted with the cell culture media. Other agents employed in the study were purchased either from Sigma Australia or Sapphire Australia, prepared and preserved for cell culture use according to supplier instructions.
as §4

C[C@](C#N)(COc1cc(C#N)ccc1C(F)(F)F)NC(=O)c1ccc(SC(F)(F)F)cc1 [MPL, N-[(1S)-1-cyano-2-(5-cyano-2-trifluoromethyl-phenoxy)-1-methyl-ethyl]-4-trifluoromethylsulfanyl-benzamide]
IC50 [1]: 15.5 µM | IC50 ([2]; Homo sapiens, MDA-MB-231, 72 h): 23.8 µM | IC50 ([2]; 72 h): 25.8 ± 0.2 µM | IC50 [3]: 5.3 µM | CC50 [4]: 10.4 µM | IC50 ([5]; Homo sapiens, LN-18, malignant, glial, SRB): 9.4 ± 0.8 µM | Mpl Alone, Mpl (x/X) Inhibition ([5]; LN18 Glioblastoma, 5 μM MPL, x=number of events, X=number of experiments): 2/2 | IC50 ([6]; Homo sapiens, U-87 MG, U87, malignant, glial, SRB): 18 ± 7.1 µM | Mpl Alone, Mpl (x/X) Inhibition ([6]; U87 Glioblastoma, 5 μM MPL, x=events, X=experiments): 1/1 | IC50 [7]: 17 ± 1.2 µM | Mpl Alone, Mpl (x/X) Inhibition ([8]; Hep3B Hepatoma, 5 μM MPL, 48 h, x=events, X=experiments): 12/12 | cytotoxic effect of MPL alone ([8]; MPL 2.5 μM, 48 h): does not display a cytotoxic effect; also recorded: does not exert a cytotoxic effect | cytotoxic effect of MPL alone ([8]; MPL 5 μM, 48 h): significant cytotoxic effect and potent effect and 12 of 12 | IC50 ([8]; Homo sapiens, Hep3B, malignant, hepatic, SRB, 72 h): 15.8 µM | Mpl Alone, Mpl (x/X) Inhibition ([9]; HT180 Fibrosarcoma, 5 or 10 μM MPL, 72 h, x=events, X=experiments): (1/1) | IC50 ([9]; Homo sapiens, HT-1080 (Fibrosarcoma), malignant, mesenchymal, SRB, 72 h): 17.2 µM | EC50 ([9]; Homo sapiens, HT-1080 cells): 17.2 µM | IC50 ([10]; SW-872 (Liposarcoma), malignant, mesenchymal, SRB, 72 h): 14.7 µM | EC50 ([10]; SW-872 cells): 14.7 µM | IC50 ([11]; Homo sapiens, PET, malignant, mesothelial, SRB): 26 µM | Mpl Alone, Mpl (x/X) Inhibition ([11]; PET Mesothelioma, 5 μM MPL, x=events, X=experiments): 2/2 | IC50 ([12]; Homo sapiens, REN, malignant, mesothelial, SRB): 2.5 ± 0.2 µM | Mpl Alone, Mpl (x/X) Inhibition ([12]; REN Mesothelioma, 5 μM MPL, x=events, X=experiments): 2/2 | IC50 ([13]; Homo sapiens, YOU, malignant, mesothelial, SRB): 23 µM | Mpl Alone, Mpl (x/X) Inhibition ([13]; YOU Mesothelioma, 5 μM MPL, x=events, X=experiments): 2/2 | IC50 [14]: 2.5 ± 0.5 µM | IC50 [15]: 4.4 ± 0.3 µM | Mpl Alone, Mpl (x/X) Inhibition ([16]; AsPC-1 Pancreatoma, 5 μM MPL, x=events, X=experiments): 1/2 | IC50 ([16]; Homo sapiens, AsPC1, malignant, pancreatic, SRB): 7.2 ± 0.3 µM | IC50 [17]: 21 µM | IC50 [18]: 12.4 ± 0.4 µM | IC50 [19]: 34.6 ± 0.9 µM | IC50 [20]: 34.6 ± 0.8 µM | IC50 [21]: 87 µM | IC50 [22]: 85.6 ± 2.7 µM | IC50 [23]: 2 to 25 µM | IC50 [24]: > 85 µM | single-dose toxicity [25]: > 2000 mg per kg of body weight | clinical tolerance [26]: well tolerated | Mpl Alone, Mpl (x/X) Inhibition ([27]; CFPAC-1 Pancreatoma, 5 μM MPL, 72 h, x=events, X=experiments): 1/10 | experiments with significant cytotoxic effect of MPL alone ([27]; CFPAC-1 cells, MPL (5 μM)): 1 of 10 | experiments with cytotoxic effect of MPL alone ([27]; CFPAC-1 cells, MPL (10 μM), 72 h, data not shown): 4 of 9 | IC50 ([27]; Homo sapiens, CFPAC-1, 72 h): 30.1 ± 5.5 µM | Mpl Alone, Mpl (x/X) Inhibition ([28]; 5 μM MPL, Table 6): 6/6^2 | Mpl Alone, Mpl (x/X) Inhibition ([28]; 5 μM MPL, Table 7): (4/4) | Mpl Alone, Mpl (x/X) Inhibition ([28]; 5 or 10 μM MPL, Table 8 lower panel): (5/5)^ | Mpl Alone, Mpl (x/X) Inhibition ([28]; 5 or 10 μM MPL, Table 8 upper panel): (3/3) | IC50 ([28]; Homo sapiens, A2780, 72 h): 10 ± 3.8 µM | IC50 ([29]; Homo sapiens, OVCAR-3, 72 h): 6.3 ± 0.8 µM | Mpl Alone, Mpl (x/X) Inhibition ([29]; OVCAR-3, 5 μM MPL, 72 h, x=events, X=experiments, Table 7): (3/3) | Mpl Alone, Mpl (x/X) Inhibition ([29]; OVCAR-3, 5 or 10 μM MPL, 72 h, Table 8 lower panel, same MPL control for serotonin and wortmannin): (2/2)^2 | Mpl Alone, Mpl (x/X) Inhibition ([29]; OVCAR-3, 5 or 10 μM MPL, 72 h, Table 8 upper panel, x=events, X=experiments): (5/5) | A) Single treatment, one symbol per experiment ([29]; OVCAR-3, MPL (5 μM), 72 h): ✓✓✓✓✓✓ | Mpl Alone, Mpl (x/X) Inhibition ([29]; OVCAR-3 Ovarian, 5 μM MPL, 72 h, x=events, X=experiments, Table 6): 4/4 | significant cytotoxic effect of MPL alone ([29]; MPL 2.5 μM, 1/1 experiments): but not 2.5 μM alone | significant cytotoxic effect of MPL alone ([29]; MPL 5 μM, 6/6 experiments): significant cytotoxic effect | Mpl Alone, Mpl (x/X) Inhibition ([30]; HOSE (Ovarian) control, Table 6): 2/9^3 | Mpl Alone, Mpl (x/X) Inhibition ([30]; HOSE (Ovarian), 72 h, Table 7): (0/4) | cytotoxic effect of MPL alone ([30]; HOSE cells, FIG. 22 Rows 2 (fluorouracil) and 5 (paclitaxel)): small but significant cytotoxic effect | significant cytotoxic effect of MPL alone ([30]; HOSE cells, MPL 2.5 μM, 1/1 experiments): did not induce a significant cytotoxic effect | significant cytotoxic effect of MPL alone ([30]; HOSE cells, MPL 5 μM, 3/3 experiments): did not induce a significant cytotoxic effect | cytotoxicity of MPL alone ([30]; flutamide experiment): 3% | cytotoxicity of MPL alone ([30]; oxaliplatin experiment): 5% | IC50 ([30]; Homo sapiens, 72 h): > 100 µM
